Assays:
Hypo-InflammaSkin models = experiment: Ex vivo human skin model of psoriasis (Hypo-InflammaSkin), cytokine release in culture medium; type: cell-based; conditions: for secretion of IL-22: Day 7 (FIG. 13R); for secretion of MIP-3α: Day 7 (FIG. 13S)
Description: Background: InflammaSkin® model is a validated psoriasis-like model developed to reproduce key features of pro-Th17/Th1 inflammation associated with psoriasis. It relies on the in situ activation of resident T-cell of normal skin biopsies and their further polarization into Th17/Th1 phenotype with the supplementation of culture medium with a cocktail of pro-inflammatory cytokines.
Model production and culture: 2 HypoSkin models of 15 mm in diameter (1.76 cm^2) were produced from 1 donor and cultured with 2 mL standard HypoSkin® medium. 20 Hypo-InflammaSkin models were produced from 1 donor by inducing in sit activation and Th17/Th1 polarization of skin resident T cells with proprietary cocktail and cultured with 2 mL Hypo-InflammaSkin® culture medium. The total treatable surface area of the models was 113 mm^2, and dosing of BisEDT took this into account based on dosing of the topical treatment. Models were maintained in standard cell culture conditions for the whole culture duration at 37° C., 5% CO2 and water saturation, with appropriate culture medium renewed every day.
Treatment Groups: Model Treatment: (1) HypoSkin® untreated control; (2) Hypo-InflammaSkin® untreated control; (3) topical betamethasone (positive control); (4) topical BisEDT—2.5 mg/mL (treatment applied every day from day 0 to 6; (5) topical BisEDT—1.25 mg/mL (treatment applied every day from day 3 to 6). N=3 per treatment group, except N=5 for Hypo-InflammaSkin® and N=1 for HypoSkin®.
Topical Treatment—Betamethasone (control): 25 μL of betamethasone was topically applied onto the surface of each skin model. Topical application was performed from Day 0 to Day 6 after removal of the previous treatment residues using a cotton swab.
Topical Treatment—BisEDT: 36 μL of the test compound was topically applied onto the surface of each skin model, massaging across the entire surface area for 1 minute, using a parafilm wrapped cotton swab; the compound was left on the skin. Topical application was performed from Day 0 to Day 6 (Treatment Group 4) or Day 3 to Day 6 (Treatment Group 5). A total of 9 models were topically treated.
Culture Media—culture media was collected on Day 3 prior to treatment application and on Day 7 and frozen at −80° C. A total of 42 culture media samples were collected.
IL-22 release: IL-22 release was measured in culture media using ELISA Human IL-22 Quantikine Kit (Bio-techne, ref D2200). Only samples from control conditions 1 to 3 were analyzed to assess donor's response to T cell activation. Each sample was analyzed in duplicate.
MSD Immunoassay—cytokine release (IL-2, IL-13, IL-15, IL-17A, IL-22, TNF-α, INF-γ, MIP-1β, and […]) in the culture medium was measured using the V-PLEX Plus Human Cytokine Kit (KI5089G, MesoScale Discovery) (FIGS. 13D-13S).

TGF-β = TGF-β expression in plasma of M. avium-infected mice; type: in vivo; conditions: 28 days treatment, low, med and high dose, compared to vehicle
Description: Protocol: M. avium infection was initiated in mice, and 3 weeks were allowed to pass to establish the infection. The animals were treated for 28 days and grouped according to dosage: vehicle, low dose pravibismane, med dose pravibismane, and high dose pravibismane. At the end of treatment, plasma samples were collected for analysis.

NLRP3 = experiment: qPCR of NLRP3 in A549 cells; type: cell-based, human; conditions: 0.5-4 μg/mL, 24 hours, compared to untreated cells
Description: (§1) Protocol: A549 cells were grown in tissue culture flasks and a 24-well plate was seeded with 2×10^5 cells/well and incubated at 37° C. and 5% CO2 for 48 hours. Select wells were treated with either 4 μg/mL, 2 μg/mL, 1 μg/mL, or 0.5 μg/mL BisEDT or left untreated as a control and incubated at 37° C. and 5% CO2 for 24 hours. Cell culture supernatant was collected from each well and stored at −20° C. until further analysis. Cells were collected for RNA isolation using Qiagen RNeasy kit using manufacturer's instructions. Briefly, genomic DNA was degraded with DNase (Roche) and samples were incubated at 37° C. for 1 hour followed by 3 μL DNase inactivation reagent (Invitrogen) incubated at 37° C. for 2 minutes. Samples were centrifuged at maximum speed for 5 minutes to remove the inactivation reagent. RNA concentration and quality was evaluated using a Nanodrop. RNA samples were utilized to generate cDNA using cDNA synthesis kit (Bio-Rad). qPCR for NLRP3 and actin (housekeeping gene) was conducted using SYBR green kit (Bio-Rad) along with standard.

HUVEC cells = experiment: Cytokine ELISA in HUVEC cells; type: cell-based, human; conditions: 0.5, 1, 2 or 4 μg/mL, 24 hours, compared to untreated cells
Description: as §1, with “HUVEC” for “A549”, “further ELISA” for “further”, “analysis. On the day of the ELISA assays to determine the expression of each cytokine, cell culture supernatant was thawed, and the assays performed following the manufacturer's instructions.” for “analysis.”, “AIM2” for “NLRP3”

[1] = Earlier 28-day tolerability work in rats; conditions: 28 days
[2] = Day 3, compared to HypoInflammaSkin
[3] = Day 7, compared to untreated HypoInflammaSkin controls

C1C[S][Bi]([S]CC[S][Bi]2[S]CC[S]2)[S]1 [BisEDT, 1,2-(Bis(1,3-dithia-2-bismolane)thio)ethane]
MIP-1β levels vs betamethasone (Hypo-InflammaSkin models): lower than the steroid betamethasone
reducing/preventing inflammation induced in the HypoInflammaSkin models, vs betamethasone (Hypo-InflammaSkin models): more effective than betamethasone
secretion of IL-13 (Hypo-InflammaSkin models; [2]): reduced secretion
secretion of IL-15 (Hypo-InflammaSkin models; [2]): reduced secretion
secretion of IL-17A (Hypo-InflammaSkin models; [2]): reduced secretion
secretion of INF-γ (Hypo-InflammaSkin models; [2]): reduced secretion
secretion of MIP-110 (Hypo-InflammaSkin models; [2]): reduced secretion
secretion of TNF-α (Hypo-InflammaSkin models; [2]): reduced secretion
IL-17A secretion (Hypo-InflammaSkin models; Day 3 and Day 7 (FIGS. 13D, 13E), compared to untreated HypoInflammaSkin): notable reduction
TNF-α (Hypo-InflammaSkin models; Day 3 and Day 7 (FIGS. 13F, 13G), compared to untreated HypoInflammaSkin control): reduction
IFNγ secretion (Hypo-InflammaSkin models; Day 3 and Day 7 (FIGS. 13H, 13I), compared to untreated HypoInflammaSkin control): reduced
secretion of MIP-1β (Hypo-InflammaSkin models; Day 3 and Day 7 (FIGS. 13L, 13M), compared to untreated HypoInflammaSkin): statistically significant decrease
MIP-1β level (Hypo-InflammaSkin models; Day 7): two out of three replicates below LOQ
secretion of IL-22 (Hypo-InflammaSkin models; compared to untreated HypoInflammaSkin control, listed as Pravibismane): reduced secretion
secretion of IL-22 (Hypo-InflammaSkin models; compared to untreated HypoInflammaSkin control, listed as pravibismane): continued to decrease
secretion of MIP-3α (Hypo-InflammaSkin models; compared to untreated HypoInflammaSkin, listed as Pravibismane): statistically significant decrease
secretion of MIP-3α (Hypo-InflammaSkin models; compared to untreated HypoInflammaSkin, listed as pravibismane): continued to decrease
secretion of IFN-γ (Hypo-InflammaSkin models; [3]): continued to decrease
secretion of IL-13 (Hypo-InflammaSkin models; [3]): continued to decrease
secretion of IL-15 (Hypo-InflammaSkin models; [3]): continued to decrease
secretion of IL-17A (Hypo-InflammaSkin models; [3]): continued to decrease
secretion of MIP-1β (Hypo-InflammaSkin models; [3]): continued to decrease
secretion of TNF-α (Hypo-InflammaSkin models; [3]): continued to decrease
IL-15 secretion (Hypo-InflammaSkin models; pravibismane (day 3), compared to untreated HypoInflammaSkin): statistically significant reduction
IL-15 secretion vs HypoSkin untreated (Hypo-InflammaSkin models; pravibismane treatment (day 3)): even lower than healthy uninflamed skin
IL-17A levels vs positive control (betamethasone) (Hypo-InflammaSkin models; topical, started at day 0 or day 3): even lower than positive control
IL-13 secretion (Hypo-InflammaSkin models; treatment from day 0 (FIGS. 13N, 13O), compared to HypoInflammaSkin control): reduced
IFN-γ levels vs positive control (betamethasone) (Hypo-InflammaSkin models; treatment starting at Day 0): even lower than positive control
TNF-α levels vs positive control (betamethasone) (Hypo-InflammaSkin models; treatment starting at Day 0): even lower than positive control
expression of TGF-β (TGF-β): consistent reduction
NLRP3 expression (NLRP3/Actin copy number) (NLRP3): inhibits NLRP3 expression
expression of IL-18 (HUVEC cells): Consistent reduction
expression of TNF-α (HUVEC cells): Consistent reduction
dose highly tolerated without adverse effects [1]: 59 µg/kg/day
